# Assay results reported in patent US9381174B2, “Composition and method for exterminating animal parasite” (Mitsui Chemicals Agro, Inc., priority 2012, dated 2016).
# Test system: Haemaphyxalis Longicornis
# Assay: Dry Film Insecticidal Test for Haemaphyxalis Longicornis
# Type: in vivo
# Conditions: 1 ml of 1 ppm acetone solution dried on 9 cm glass petri dish; young ticks; 48 hours of exposure; 25° C.; dead and anguish ticks
# Method: 1 ml of an acetone solution that was prepared so that the compound was included at a concentration of 1 ppm was added dropwise to a glass petri dish having a diameter of 9 cm. After the addition, the acetone was air-dried for use in the test. About 10 young ticks were added. Then the dish was covered by a plastic film and sealed with a lid. The dish was placed in a constant temperature bath that was set at a temperature of 25° C., at a humidity of 100%, and with a light:dark cycle of 16:8.
# After 48 hours of the exposure, the conditions of the ticks were examined and classified into “alive”, “dead (including a moribund condition)”, and “anguish”. The death rates after 48 hours are illustrated in Table 9.
# The death rates were calculated as follows: Death Rate (%)=(Number of Dead and Anguish Ticks)/Total Number of Ticks×100
row,Structure (SMILES),Death Rate after 48 hours (%)
1,CN(CC(F)(F)F)C(=O)C(=O)Nc1cccc(C(=O)Nc2c(Cl)cc(C(F)(C(F)(F)F)C(F)(F)F)cc2C(F)(F)F)c1F [6-3],100
2,CN(CC(F)(F)F)C(=O)C(=O)N(C)c1cccc(C(=O)Nc2c(Br)cc(C(F)(C(F)(F)F)C(F)(F)F)cc2C(F)(F)F)c1F [6-4],100
3,CN(CC(F)(F)F)C(=O)C(=O)N(C)c1cccc(C(=O)Nc2c(I)cc(C(F)(C(F)(F)F)C(F)(F)F)cc2C(F)(F)F)c1F [6-5],100
4,CN(CC(F)(F)F)C(=O)C(=O)Nc1cccc(C(=O)Nc2c(Br)cc(C(F)(C(F)(F)F)C(F)(F)F)cc2SC(F)(F)F)c1F [6-6],100
5,CN(CC(F)(F)F)C(=O)C(=O)Nc1cccc(C(=O)Nc2c(Br)cc(C(F)(C(F)(F)F)C(F)(F)F)cc2[S+]([O-])C(F)(F)F)c1F (stereo not drawn) [6-7],100
6,CN(CC(F)(F)F)C(=O)C(=O)Nc1cccc(C(=O)Nc2c(Br)cc(C(F)(C(F)(F)F)C(F)(F)F)cc2S(=O)(=O)C(F)(F)F)c1F [6-8],100
7,CN(CC(F)(F)F)C(=O)C(=O)Nc1cccc(C(=O)Nc2c(I)cc(C(F)(C(F)(F)F)C(F)(F)F)cc2SC(F)(F)F)c1F [6-9],100
8,CN(CC(F)(F)F)C(=O)C(=O)Nc1cccc(C(=O)Nc2c(I)cc(C(F)(C(F)(F)F)C(F)(F)F)cc2[S+]([O-])C(F)(F)F)c1F (stereo not drawn) [6-10],100
9,CN(CC(F)(F)F)C(=O)C(=O)Nc1cccc(C(=O)Nc2c(I)cc(C(F)(C(F)(F)F)C(F)(F)F)cc2S(=O)(=O)C(F)(F)F)c1F [6-11],100
10,CN(CC(F)(F)F)C(=O)C(=O)Nc1cccc(C(=O)Nc2c(Br)cc(C(F)(C(F)(F)F)C(F)(F)F)cc2OC(F)F)c1F [6-12],100
11,CN(CC(F)(F)F)C(=O)C(=O)N(C)c1cccc(C(=O)Nc2c(Br)cc(C(F)(C(F)(F)F)C(F)(F)F)cc2OC(F)F)c1F [6-13],100
12,CCN(C)C(=O)C(=O)N(C)c1cccc(C(=O)Nc2c(I)cc(C(F)(C(F)(F)F)C(F)(F)F)cc2OC(F)F)c1F [6-14],100
13,CCN(C)C(=O)C(=O)N(C)c1cccc(C(=O)Nc2c(I)cc(C(F)(C(F)(F)F)C(F)(F)C(F)(F)F)cc2OC(F)F)c1F (stereo not drawn) [6-15],100
14,CCN(C)C(=O)C(=O)N(C)c1cccc(C(=O)Nc2c(C)cc(C(F)(C(F)(F)F)C(F)(F)C(F)(F)F)cc2OC(F)F)c1F (stereo not drawn) [6-16],100
15,CN(CC(F)(F)F)C(=O)C(=O)N(C)c1cccc(C(=O)Nc2c(I)cc(C(F)(C(F)(F)F)C(F)(F)C(F)(F)F)cc2SC(F)(F)F)c1F (stereo not drawn) [6-18],100
16,CN(CC(F)(F)F)C(=O)C(=O)N(C)c1cccc(C(=O)Nc2c(I)cc(C(F)(C(F)(F)F)C(F)(F)C(F)(F)F)cc2S(=O)(=O)C(F)(F)F)c1F (stereo not drawn) [6-19],100
17,CCN(C)C(=O)C(=O)N(C)c1cccc(C(=O)Nc2c(I)cc(C(F)(C(F)(F)F)C(F)(F)C(F)(F)F)cc2S(=O)(=O)C(F)(F)F)c1F (stereo not drawn) [6-20],100
18,CN(CC(F)(F)F)C(=O)C(=O)Nc1cccc(C(=O)Nc2c(Br)cc(C(F)(C(F)(F)F)C(F)(F)F)cc2Br)c1F [Compound No. 4-66],100
19,CCN(C)C(=O)C(=O)Nc1cccc(C(=O)Nc2c(Br)cc(C(F)(C(F)(F)F)C(F)(F)F)cc2OC(F)F)c1 [Compound No. 5-15],100
20,"CN(CCF)C(=O)C(=O)Nc1cccc(C(=O)Nc2c(Br)cc(C(F)(C(F)(F)F)C(F)(F)F)cc2C(F)(F)F)c1F [Compound No. 6-1, 2-fluoro-3-[N-(2-fluoroethyl)-N-methylaminoxalylamino]-N-[2-bromo-4-heptafluoroisopropyl-6-(trifluoromethyl)phenyl]benzamide]",100
21,"CN(CCF)C(=O)C(=O)Nc1cccc(C(=O)Nc2c(I)cc(C(F)(C(F)(F)F)C(F)(F)F)cc2C(F)(F)F)c1F [Compound No. 6-2, 2-fluoro-3-[N-(2-fluoroethyl)-N-methylaminoxalylamino]-N-[2-iodo-4-heptafluoroisopropyl-6-(trifluoromethyl)phenyl]benzamide]",100

# Test system: Ctenocephalides felis
# Assay: Insecticidal Test for Ctenocephalides felis (treated filter paper contact)
# Type: in vivo
# Conditions: 50 μg/cm^2 on filter paper; emerged adult fleas; 72 hours of exposure; dead including moribund; in triplicate
# Method: 0.2 mL of an acetone solution was added dropwise to a round filter paper having a diameter of 4.0 cm that were grasped with tweezers so that each of the compounds was included in an amount of 50 μg/cm^2. After the addition, the filter paper was dried at room temperature for 24 hours for use in the test.
# Three 200 mL vials were used per compound. The filter paper treated with a test agent was placed tightly into a lid of the vials so that fleas might be contacted with the paper.
# About 20 emerged adult fleas were added to each of the 200 mL vials using an aspirator. Then immediately, the vial was sealed with the lid into which the filter paper that was treated with the agent was tightly placed. It was examined if the fleas that were already dead were added. In a case in which dead fleas were found, the number of the dead fleas was subtracted from the total number.
# The vials were turned upside down so that the fleas were always contacted with the filter paper. After 24, 48, and 72 hours of the exposure, the conditions of the fleas were examined and classified into “alive” and “dead (including a moribund condition)” to determine the death rates (in triplicate). The death rates after 72 hours are illustrated in Table 8.
# The death rates were calculated as follows: Death Rate (%)=(Number of Dead Fleas including Moribund Fleas)/Total Number of Fleas×100
row,Structure (SMILES),Death Rate after 72 hours (%)
1,CCN(C)C(=O)C(=O)Nc1cccc(C(=O)Nc2c(Br)cc(C(F)(C(F)(F)F)C(F)(F)F)cc2OC(F)F)c1 [Compound No. 5-15],80.0
2,"CN(CCF)C(=O)C(=O)Nc1cccc(C(=O)Nc2c(Br)cc(C(F)(C(F)(F)F)C(F)(F)F)cc2C(F)(F)F)c1F [Compound No. 6-1, 2-fluoro-3-[N-(2-fluoroethyl)-N-methylaminoxalylamino]-N-[2-bromo-4-heptafluoroisopropyl-6-(trifluoromethyl)phenyl]benzamide]",100
3,"CN(CCF)C(=O)C(=O)Nc1cccc(C(=O)Nc2c(I)cc(C(F)(C(F)(F)F)C(F)(F)F)cc2C(F)(F)F)c1F [Compound No. 6-2, 2-fluoro-3-[N-(2-fluoroethyl)-N-methylaminoxalylamino]-N-[2-iodo-4-heptafluoroisopropyl-6-(trifluoromethyl)phenyl]benzamide]",100
